Common to all, as to assay type: binding, sheep
Assay [1] has as its system Antibody to Immunogen VIII. On the procedure:
(§1) An aqueous solution of each immunogen was formulated with Freund's Complete Adjuvant (FCA) to form an emulsion consisting of 2mg/ml* immunogen in 50% (v/v) FCA. Three sheep were immunised with this emulsion (1° immunisation), 0.25ml being intramuscularly injected at each of four sites in the flank of each animal. Subsequent immunizations (boosts) contained 1mg/ml* immunogen. All boosts were emulsified in 50% (v/v) Freund's Incomplete Adjuvant (FIA) and were administered in the same manner as the 1° immunisation, at monthly intervals. Blood sampling took place 7 to 14 days after each boost. *The general procedure for immunogen administration is outlined above, however, it was necessary to deviate from this protocol in some cases, due to reduced immunogen concentrations (Immunogens II, IV, VII and VIII) and/or amount available (Immunogen VIII). Any deviations from the protocol described are outlined in Table 1A below and highlighted in bold. Table 1A: Amount and volume of immunogens administered for primary and subsequent boosts
(§2) The wells of an enhanced binding 96 well polystyrene microtiter plate were coated with IgG fraction of antiserum raised to Immunogen I or II, diluted in 10mM Tris, pH8.5 (125µl/well). The appropriate antibody coating dilution was determined using standard ELISA checkerboard techniques. The plate was incubated overnight at 4°C, washed 4 times over 10 minutes with Tris buffered saline containing Tween 20 (TBST) and tapped dry. Standard solutions (JWH-018 for Immunogens I and II) were applied at 0, 0.625, 1.25, 2.5, 5, 10, 20 and 40ng/ml and 50µl of each was added to the appropriate wells. 75µl of conjugate (appropriate hapten-HRP) diluted in Tris buffer (pH 7.2) containing EDTA, D-mannitol, sucrose, thimerosal and BSA, was added to each of the wells. The appropriate dilution of conjugate was also determined using standard ELISA checkerboard techniques. The plate was incubated at 25°C for 1 hour. Excess unbound conjugate was removed by washing 6 times over a 10 minute period with TBST. 125µl of tetramethylbenzidine (TMB) substrate solution was added to each well of the plate that was then incubated for 20 minutes in the dark at room temperature. The reaction was terminated by addition of 125µl 0.2M H2SO4 to each well. The absorbance was then measured at 450nm using a microtiter plate reader. The data are inputted to a computer program called 'KC Junior'. It is a 4 parameter fit curve and allow the calculatation of concentrations between the standard runs. This program is used to calculate the IC50s by dividing the 0ng/ml OD value by 2 and obtaining the concentration value from the curve for this OD.
(§3) In a similar manner to that described above, the wells of a 96-well microtiter plate were coated with the IgG fraction of the antiserum raised to Immunogens IV, VII or VIII. Standard solutions (JWH-018 for Immunogens IV and VIII, JWH-015 for Immunogen VII) were prepared in TBST at 0, 1.25, 2.5, 5, 10, 20, 40 and 80ng/ml and conjugate was employed as detection reagent.
(§4) The data set our in Tables 3 and 4 are generated using antibodies raised against the indicated Immunogens in a competitive binding assay with the indicated tracers, using the indicated standards: Table 2
(§5) A450 = absorbance at 450nm B = absorbance at 450nm at xng/ml standard concentration B0 = absorbance at 450nm at 0ng/ml standard concentration IC50 = standard concentration which produces 50% B/B0
(§6) In order to determine the specificity of the competitive ELISAs, standard solutions of a range of structurally similar synthetic cannabinoids and their metabolites were prepared in TBST. Using the calibration curves generated and employing a single level of cross reactants, these were used to determine the cross-reactivity of each immunoassay with these substances. […]

The next assay deals with Antibody to Immunogen IV. The procedure: as §1, §2, §3, §4, §5, §6
In assay [2] the test system is Antibody to Immunogen VII. The procedure: as §1, §2, §3, §4, §5, §6
Another assay relates to Antibody to Immunogen I. Conditions: Cross-reactants at 100 ng/ml; Antibody to Immunogen I. The procedure:
as §1, §2
In a similar manner to that described above, the wells of a 96-well microtiter plate were coated with the IgG fraction of the antiserum raised to Immunogens I or II. Standard solutions (JWH-018 for Immunogen I and II) were applied at 0, 0.625, 1.25, 2.5, 5, 10, 20 and 40ng/ml and conjugate was employed as detection reagent.
as §4, §5, §6

Setting [3] is: Cross-reactants at 100 ng/ml, Antibody to Immunogen VIII.
Setting [4] is: Cross-reactants at 100 ng/ml, Antibody to Immunogen IV.
Where [5] appears, read: Cross-reactants at 100 ng/ml, Antibody to Immunogen VII.

Counter-ions that a name gives are not always drawn. Like-named read-outs stand apart in the source and are kept apart here.

Consider `COc1ccc(C(=O)c2c(C)n(CCN3CCOCC3)c3cc(I)ccc23)cc1` [AM-630 (other name 6-Iodopravadoline), 6-Iodopravadoline], for which the “%B/B0” value in assay [1] (setting [3]) was 89.88%; in the assay with Antibody to Immunogen IV (setting [4]), 90.17%; in assay [2] (setting [5]), 99.88%; with Antibody to Immunogen I, 91.12%.
As to `O=C(c1ccc(I)cc1)c1cn(CCCCCF)c2ccccc12` [AM-694 4-iodo isomer], the “%B/B0” value in assay [1] (setting [3]) was 13.42%; in the assay on Antibody to Immunogen IV (setting [4]), 27.66%; in assay [2] (setting [5]), 98.71%; in the assay with Antibody to Immunogen I it was 73.79%.
For `CN1CCCCC1Cn1cc(C(=O)c2cc([N+](=O)[O-])ccc2I)c2ccccc21` (stereo not drawn) [AM-1241] the same measures were 102.46%, 91.38%, 94.96% and 85.61%.
The corresponding values for `CCCCCCC(C)(C)C1=CC(=O)C([C@@H]2CCC[C@H](O)C2)=CC1=O` [CP-47,497-para-quinone analogue] are 88.11%, 97.33%, 93.29% and 100.26%.
With `CCCCCCCC(C)(C)c1ccc([C@H]2CCC[C@@H](O)C2)c(O)c1` [CP-49,497-C8-homologue], the “%B/B0” value in assay [1] (setting [3]) amounted to 104.88%; in the assay with Antibody to Immunogen IV (setting [4]), 94.66%; in assay [2] (setting [5]) it was 98.55%; in the assay with Antibody to Immunogen I, 101.11%.
The corresponding values for `CCCCCCC(C)(C)c1cc(O)c2c(c1)OC(C)(C)[C@@H]1CC=C(CO)C[C@@H]21` [HU-210] are 93.42%, 92.53%, 100.39% and 102.57%.
The corresponding values for `CCCCCCC(C)(C)c1cc(O)c2c(c1)OC(C)(C)[C@H]1CC=C(CO)C[C@H]21` [HU-211 (Dexanabinol), Dexanabinol] are 92.70%, 93.37%, 96.78% and 103.36%.
For the compound `CCCCCCC(C)(C)c1cc(OC)c([C@@H]2C=C(CO)[C@@H]3C[C@H]2C3(C)C)c(OC)c1` [HU-308], the “%B/B0” value turned out to be 89.77% in assay [1] (setting [3]), 94.03% in the assay on Antibody to Immunogen IV (setting [4]), 95.95% in assay [2] (setting [5]) and 101.35% with Antibody to Immunogen I.
The corresponding values for `CCCCCn1cc(C(=O)c2ccc3ccccc3c2)c2ccccc21` [JWH 018 2'-naphthyl isomer] are 14.94%, 28.13%, 94.98% and 75.90%.
The corresponding values for `CCCCCn1cc(C(=O)C23CC4CC(CC(C4)C2)C3)c2ccccc21` [JWH 018 adamantyl analog] are 10.97%, 99.02%, 94.48% and 95.94%.
The corresponding values for `CCCCCn1cc(C(=O)Cc2ccccc2OC)c2cc(O)ccc21` [JWH 250 5-hydroxyindole metabolite] are 67.19%, 84.05%, 99.88% and 100.75%.
In the case of `COc1ccccc1CC(=O)c1cn(CCCCCC(=O)O)c2ccccc12` [JWH 250 N-(5-carboxypentyl) metabolite], the “%B/B0” value in assay [1] (setting [3]) was found to be 89.30%; in the assay with Antibody to Immunogen IV (setting [4]), 89.88%; in assay [2] (setting [5]), 97.60%; in the assay with Antibody to Immunogen I, 86.21%.
For the compound `COc1ccccc1CC(=O)c1cn(CCCCCO)c2ccccc12` [JWH 250 N-(5-hydroxypentyl) metabolite], the “%B/B0” value amounted to 42.79% in assay [1] (setting [3]), 76.22% with Antibody to Immunogen IV (setting [4]), 96.13% in assay [2] (setting [5]) and 75.47% with Antibody to Immunogen I.
`CCCCCn1cc(C(=O)Cc2cccc(C)c2)c2ccccc21` [JWH 251 3-methylphenyl isomer]: the “%B/B0” value stood at 8.97% in assay [1] (setting [3]), 51.15% in the assay on Antibody to Immunogen IV (setting [4]), 99.32% in assay [2] (setting [5]) and 85.90% in the assay on Antibody to Immunogen I.
`CCCCCC(C)n1c(C)c(C(=O)c2cccc3ccccc23)c2ccccc21` (stereo not drawn) [JWH-011]: the “%B/B0” value in assay [1] (setting [3]) is on record as 97.49%; in the assay with Antibody to Immunogen IV (setting [4]), 99.19%; in assay [2] (setting [5]), 57.43%; in the assay with Antibody to Immunogen I it was 62.13%.
Consider `CCCCCn1c(O)c(C(=O)c2cccc3ccccc23)c2ccccc21` [JWH-018 2-hydroxyindole metabolite], for which the “%B/B0” value in assay [1] (setting [3]) is recorded as 101.36%; with Antibody to Immunogen IV (setting [4]), 100.14%; in assay [2] (setting [5]), 95.08%; in the assay on Antibody to Immunogen I, 95.37%.
For `CCCCCn1ccc(C(=O)c2cccc3ccccc23)c1` [JWH-030] the same measures were 94.25%, 93.17%, 89.66% and 61.17%.
The corresponding values for `CCCCn1c(O)c(C(=O)c2cccc3ccccc23)c2ccccc21` [JWH-073 2-hydroxyindole metabolite] are 93.42%, 89.63%, 92.65% and 89.62%.
The corresponding values for `CCCCn1cc(C(=O)c2ccc(C)c3ccccc23)c2ccccc21` [JWH-073 4-methylnaphthyl analogue] are 19.75%, 7.01%, 78.36% and 45.54%.
Turning to `COc1ccc(C(=O)c2cn(CCCCCO)c3ccccc23)c2ccccc12` [JWH-081 N-(5-hydroxypentyl) metabolite], the “%B/B0” value in assay [1] (setting [3]) was found to be 47.16%; in the assay with Antibody to Immunogen IV (setting [4]) it was 26.31%; in assay [2] (setting [5]) it was 89.31%; in the assay on Antibody to Immunogen I, 61.86%.
Take `CCCCCn1cc(C(=O)c2ccc(OC)c3ccccc23)c2ccccc21` [JWH-081]: the “%B/B0” value was 15.88% in assay [1] (setting [3]), 3.78% in the assay with Antibody to Immunogen IV (setting [4]), 86.72% in assay [2] (setting [5]) and 62.13% in the assay on Antibody to Immunogen I.
For `CCCCCn1c(C)c(C(=O)c2ccc(OC)c3ccccc23)c2ccccc21` [JWH-098] the same measures were 59.80%, 44.03%, 82.85% and 77.58%.
The corresponding values for `CCCC(C)(C)c1ccc2c(c1)OC(C)(C)[C@@H]1CC=C(C)C[C@@H]21` [JWH-133] are 100.00%, 98.18%, 101.84% and 100.56%.
The corresponding values for `CCCCCCn1cc(C(=O)c2cccc3ccccc23)cc1-c1ccccc1` [JWH-147] are 92.32%, 97.00%, 99.32% and 83.85%.
As to `NCCc1c[nH]c2ccc(O)cc12` [Serotonin HCl], the “%B/B0” value worked out at 100.36% in assay [1] (setting [3]), 95.40% in the assay on Antibody to Immunogen IV (setting [4]) and 99.83% in assay [2] (setting [5]).
In the case of (-)-11-nor-9-Carboxy-delta9-THC, the “%B/B0” value in assay [1] was found to be 103.36%; in the assay on Antibody to Immunogen IV, 93.08%; in assay [2], 98.72%.

Values taken from patent EP2698385A1, “Detection of synthetic cannabinoids” (priority 2012, dated 2014).
